From patent US20250042900A1 (priority 2022, published 2025)
Structures can show the parent of a compound that is named as a salt. Where two headings read alike, the source gives them in different places.

Assays:
[1] = molecular target: T1, 5-HT1B receptors (Homo sapiens, UniProt P28222); assay: In vitro activity at 5-HT1B receptors, agonist mode (cAMP secondary messenger assay); format: cell-based
T1 construct: host or cells: cAMP Hunter cell line

[2] = molecular target: T2, MAOA (Homo sapiens, UniProt P21397); assay: Enzymatic assay MAOA; format: biochemical; conditions: inhibitor, read-out: IC50 (μM) Antag./Blocker/Inhibitor
T2 construct: purchased Sigma

[3] = molecular target: T3, PDE4D2 (Homo sapiens, UniProt Q08499); assay: Enzymatic assay PDE4D2; format: biochemical; conditions: inhibitor, read-out: IC50 (μM) Antag./Blocker/Inhibitor
T3 construct: purchased Signal Chem

[4] = molecular target: T4, 5-Hydroxytryptamine (Serotonin) Receptor 1B (5-HT1B) (Homo sapiens, UniProt P28222); assay: cAMP secondary messenger assay, antagonist format; format: cell-based; conditions: read-out: IC50 (μM) Antag./Blocker/Inhibitor
T4 construct: host or cells: cAMP Hunter cell line

[5] = molecular target: T5, Adrenergic Receptor α1A (ADRA1A) (Homo sapiens, UniProt P35348); assay: Calcium flux secondary messenger assay, agonist format; format: cell-based; conditions: read-out: EC50 (μM) Agonist/Opener
[6] = molecular target: T5, Adrenergic Receptor α1A (ADRA1A); assay: Calcium flux secondary messenger assay, antagonist format; format: cell-based; conditions: read-out: IC50 (μM) Antag./Blocker/Inhibitor
[7] = molecular target: Adrenergic Receptor β2 (ADRB2) (Homo sapiens, UniProt P07550); assay: cAMP secondary messenger assay, antagonist format; format: cell-based; conditions: read-out: IC50 (μM) Antag./Blocker/Inhibitor
[8] = molecular target: Histamine Receptor H1 (HRH1) (Homo sapiens, UniProt P35367); assay: Calcium flux secondary messenger assay, agonist format; format: cell-based; conditions: read-out: EC50 (μM) Agonist/Opener
[9] = molecular target: Adenosine Receptor A2A (ADORA2A) (Homo sapiens, UniProt P29274); assay: Calcium flux secondary messenger assay, antagonist format; format: cell-based; conditions: read-out: IC50 (μM) Antag./Blocker/Inhibitor
[10] = molecular target: T6, Adrenergic Receptor β1 (ADRB1) (Homo sapiens, UniProt P08588); assay: cAMP secondary messenger assay, agonist format; format: cell-based; conditions: read-out: EC50 (μM) Agonist/Opener
[11] = molecular target: T6, Adrenergic Receptor β1 (ADRB1); assay: cAMP secondary messenger assay, antagonist format; format: cell-based; conditions: read-out: IC50 (μM) Antag./Blocker/Inhibitor
[12] = molecular target: T7, Arginine Vasopressin Receptor 1A (AVPR1A) (Homo sapiens, UniProt P37288); assay: Calcium flux secondary messenger assay, agonist format; format: cell-based; conditions: read-out: EC50 (μM) Agonist/Opener
[13] = molecular target: T7, Arginine Vasopressin Receptor 1A (AVPR1A); assay: Calcium flux secondary messenger assay, antagonist format; format: cell-based; conditions: read-out: IC50 (μM) Antag./Blocker/Inhibitor
[14] = molecular target: Cholecystokinin Receptor A (CCKAR) (Homo sapiens, UniProt P32238); assay: Calcium flux secondary messenger assay, agonist format; format: cell-based; conditions: read-out: EC50 (μM) Agonist/Opener
[15] = molecular target: Muscarinic acetylcholine Receptor M1 (CHRM1) (Homo sapiens, UniProt P11229); assay: as above; format: cell-based; conditions: read-out: EC50 (μM) Agonist/Opener
[16] = molecular target: Dopamine Receptor D1 (DRD1) (Homo sapiens, UniProt P21728); assay: cAMP secondary messenger assay, antagonist format; format: cell-based; conditions: read-out: IC50 (μM) Antag./Blocker/Inhibitor
[17] = molecular target: Endothelin Receptor Type A (EDNRA) (Homo sapiens, UniProt P25101); assay: Calcium flux secondary messenger assay, antagonist format; format: cell-based; conditions: read-out: IC50 (μM) Antag./Blocker/Inhibitor
[18] = molecular target: Histamine Receptor H2 (HRH2) (Homo sapiens, UniProt P25021); assay: cAMP secondary messenger assay, agonist format; format: cell-based; conditions: read-out: EC50 (μM) Agonist/Opener
[19] = molecular target: Opioid Receptor Delta 1 (OPRD1) (Homo sapiens, UniProt P41143); assay: cAMP secondary messenger assay, antagonist format; format: cell-based; conditions: read-out: IC50 (μM) Antag./Blocker/Inhibitor
[20] = molecular target: Opioid Receptor Kappa 1 (OPRK1) (Homo sapiens, UniProt P41145); assay: cAMP secondary messenger assay, agonist format; format: cell-based; conditions: read-out: EC50 (μM) Agonist/Opener
[21] = molecular target: T8, Nicotinic acetylcholine Receptor α4 β2 (nAChR(a4/b2)) (Homo sapiens, UniProt P17787+P43681); assay: Ion channel assay, opener format; format: cell-based; conditions: read-out: EC50 (μM) Agonist/Opener
[22] = molecular target: T8, Nicotinic acetylcholine Receptor α4 β2 (nAChR(a4/b2)); assay: Ion channel assay, blocker format; format: cell-based; conditions: read-out: IC50 (μM) Antag./Blocker/Inhibitor
[23] = molecular target: CAV1.2 (Voltage-gated L-type calcium channel) (Homo sapiens, UniProt Q13936); assay: Ion channel assay, blocker format; format: cell-based; conditions: read-out: IC50 (μM) Antag./Blocker/Inhibitor
[24] = molecular target: hERG (Homo sapiens, UniProt Q12809); assay: Ion channel assay, blocker format; format: cell-based; conditions: read-out: IC50 (μM) Antag./Blocker/Inhibitor
[25] = molecular target: T9, N-methyl-D-aspartate (NMDA) Glutamate Receptor 1A/2B (NMDAR (1A/2B)) (Homo sapiens, UniProt Q05586+Q13224); assay: Ion channel assay, opener format; format: cell-based; conditions: read-out: EC50 (μM) Agonist/Opener
[26] = molecular target: T9, N-methyl-D-aspartate (NMDA) Glutamate Receptor 1A/2B (NMDAR (1A/2B)); assay: Ion channel assay, blocker format; format: cell-based; conditions: read-out: IC50 (μM) Antag./Blocker/Inhibitor
[27] = molecular target: T10, Insulin Receptor (tyrosine kinase) (INSR) (Homo sapiens, UniProt P06213); assay: Kinase binding assay (KINOMEscan); conditions: inhibitor, read-out: IC50 (μM) Antag./Blocker/Inhibitor
T10 construct: T7 phage fusion (most assays) or DNA tag for qPCR (the remaining kinases); made in house; host or cells: E. coli (BL21-derived, T7 phage display) or HEK-293

[28] = molecular target: Nuclear Hormone Glucocorticoid Receptor (GR) (Homo sapiens, UniProt P04150); assay: NHR Protein Interaction assay, antagonist format; format: cell-based; conditions: read-out: IC50 (μM) Antag./Blocker/Inhibitor
[29] = molecular target: T11, Lymphocyte Cell-Specific Protein-Tyrosine Kinase (Src family) (LCK) (Homo sapiens, UniProt P06239); assay: Kinase binding assay (KINOMEscan); conditions: inhibitor, read-out: IC50 (μM) Antag./Blocker/Inhibitor
T11 construct: T7 phage fusion (most assays) or DNA tag for qPCR (the remaining kinases); made in house; host or cells: E. coli (BL21-derived, T7 phage display) or HEK-293

[30] = molecular target: T12, Vascular endothelial growth factor receptor 2 (KDR tyrosine kinase) (VEGFR2) (Homo sapiens, UniProt P35968); assay: biochemical; conditions: Binding, inhibitor, read-out: IC50 (μM) Antag./Blocker/Inhibitor
T12 construct: T7 phage fusion (most assays) or DNA tag for qPCR (the remaining kinases); made in house; host or cells: E. coli (BL21-derived, T7 phage display) or HEK-293

[31] = molecular target: norepinephrine transporter (Homo sapiens, UniProt P23975); assay: Monoamine transporter uptake assay (Neurotransmitter Transporter Uptake Assay Kit), blocker format

T9 sequence (Q13224 27-1484, other chains not shown): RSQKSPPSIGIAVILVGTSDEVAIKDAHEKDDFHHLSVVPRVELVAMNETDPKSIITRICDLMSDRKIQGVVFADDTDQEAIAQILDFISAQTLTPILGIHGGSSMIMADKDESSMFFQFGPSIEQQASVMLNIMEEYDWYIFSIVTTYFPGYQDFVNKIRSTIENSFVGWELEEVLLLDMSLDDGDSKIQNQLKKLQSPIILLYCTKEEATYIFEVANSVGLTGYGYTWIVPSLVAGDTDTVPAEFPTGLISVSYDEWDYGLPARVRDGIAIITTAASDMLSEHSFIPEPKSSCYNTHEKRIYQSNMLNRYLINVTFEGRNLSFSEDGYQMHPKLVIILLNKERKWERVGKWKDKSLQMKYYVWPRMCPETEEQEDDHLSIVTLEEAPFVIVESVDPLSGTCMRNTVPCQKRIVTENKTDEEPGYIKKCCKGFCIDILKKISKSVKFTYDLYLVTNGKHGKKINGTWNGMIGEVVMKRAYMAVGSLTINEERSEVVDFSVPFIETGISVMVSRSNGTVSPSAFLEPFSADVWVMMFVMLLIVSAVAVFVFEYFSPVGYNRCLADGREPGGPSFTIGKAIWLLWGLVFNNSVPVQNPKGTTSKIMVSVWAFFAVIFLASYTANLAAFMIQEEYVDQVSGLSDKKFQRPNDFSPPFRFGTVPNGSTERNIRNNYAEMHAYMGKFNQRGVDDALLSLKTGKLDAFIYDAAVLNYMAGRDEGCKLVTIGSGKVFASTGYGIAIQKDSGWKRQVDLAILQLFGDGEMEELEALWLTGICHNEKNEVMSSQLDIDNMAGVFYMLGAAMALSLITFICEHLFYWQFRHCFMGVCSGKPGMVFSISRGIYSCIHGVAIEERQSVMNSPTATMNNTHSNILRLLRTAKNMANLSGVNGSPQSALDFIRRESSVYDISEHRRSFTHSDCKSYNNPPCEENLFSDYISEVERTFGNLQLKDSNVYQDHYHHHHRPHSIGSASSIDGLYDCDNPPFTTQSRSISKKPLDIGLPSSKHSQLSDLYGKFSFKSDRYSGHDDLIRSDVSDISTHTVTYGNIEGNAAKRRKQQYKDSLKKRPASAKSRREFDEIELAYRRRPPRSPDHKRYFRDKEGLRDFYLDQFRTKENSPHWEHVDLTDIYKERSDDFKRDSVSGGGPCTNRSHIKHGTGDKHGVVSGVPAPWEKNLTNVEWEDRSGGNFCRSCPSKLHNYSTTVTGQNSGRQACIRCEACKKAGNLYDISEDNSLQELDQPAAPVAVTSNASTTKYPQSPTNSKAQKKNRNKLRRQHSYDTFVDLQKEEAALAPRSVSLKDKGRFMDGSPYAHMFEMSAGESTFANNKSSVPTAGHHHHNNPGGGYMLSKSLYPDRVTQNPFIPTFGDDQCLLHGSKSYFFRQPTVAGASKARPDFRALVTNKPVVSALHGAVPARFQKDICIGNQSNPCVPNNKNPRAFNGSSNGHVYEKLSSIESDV
T8 sequence (P43681 29-627 limits assumed): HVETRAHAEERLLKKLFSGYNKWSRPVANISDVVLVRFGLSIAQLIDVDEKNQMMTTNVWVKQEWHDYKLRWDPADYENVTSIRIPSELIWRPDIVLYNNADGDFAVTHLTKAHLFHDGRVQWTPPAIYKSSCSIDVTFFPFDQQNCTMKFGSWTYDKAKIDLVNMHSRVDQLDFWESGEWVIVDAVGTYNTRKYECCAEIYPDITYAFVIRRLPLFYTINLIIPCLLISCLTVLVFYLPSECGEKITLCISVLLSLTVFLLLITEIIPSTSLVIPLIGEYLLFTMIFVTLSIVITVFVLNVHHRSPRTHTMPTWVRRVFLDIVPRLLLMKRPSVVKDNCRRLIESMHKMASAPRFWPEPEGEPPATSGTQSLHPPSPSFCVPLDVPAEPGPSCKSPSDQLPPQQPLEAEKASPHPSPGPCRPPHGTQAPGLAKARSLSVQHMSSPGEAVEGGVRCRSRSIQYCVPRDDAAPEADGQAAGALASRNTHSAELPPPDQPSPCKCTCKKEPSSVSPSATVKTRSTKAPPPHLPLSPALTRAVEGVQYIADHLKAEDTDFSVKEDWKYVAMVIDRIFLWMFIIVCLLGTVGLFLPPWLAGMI
T8 sequence (P17787 26-502): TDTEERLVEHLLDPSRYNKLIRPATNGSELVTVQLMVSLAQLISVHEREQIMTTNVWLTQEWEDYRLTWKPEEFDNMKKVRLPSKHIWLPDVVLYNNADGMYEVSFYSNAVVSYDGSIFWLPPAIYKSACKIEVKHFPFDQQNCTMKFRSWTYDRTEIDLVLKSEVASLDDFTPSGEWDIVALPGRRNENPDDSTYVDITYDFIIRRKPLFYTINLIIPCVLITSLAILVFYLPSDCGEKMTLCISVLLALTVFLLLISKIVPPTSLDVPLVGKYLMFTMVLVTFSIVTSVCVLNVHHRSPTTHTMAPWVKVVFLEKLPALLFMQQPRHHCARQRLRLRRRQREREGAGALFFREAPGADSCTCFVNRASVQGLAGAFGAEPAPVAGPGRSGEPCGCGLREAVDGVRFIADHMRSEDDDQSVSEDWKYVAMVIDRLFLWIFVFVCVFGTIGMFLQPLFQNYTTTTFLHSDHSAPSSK
T6 sequence (P08588 whole entry): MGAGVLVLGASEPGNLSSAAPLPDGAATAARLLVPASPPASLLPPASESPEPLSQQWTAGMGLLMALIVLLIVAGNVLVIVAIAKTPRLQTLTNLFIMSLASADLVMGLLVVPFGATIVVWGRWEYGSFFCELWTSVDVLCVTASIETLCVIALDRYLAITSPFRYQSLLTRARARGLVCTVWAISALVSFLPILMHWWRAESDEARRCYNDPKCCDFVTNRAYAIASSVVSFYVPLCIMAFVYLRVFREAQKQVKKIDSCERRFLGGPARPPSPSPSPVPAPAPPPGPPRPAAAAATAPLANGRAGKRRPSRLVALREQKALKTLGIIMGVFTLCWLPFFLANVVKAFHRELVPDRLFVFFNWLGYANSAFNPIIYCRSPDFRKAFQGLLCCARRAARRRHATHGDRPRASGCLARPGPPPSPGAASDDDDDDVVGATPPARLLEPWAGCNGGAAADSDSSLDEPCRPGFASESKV
T7 sequence (P37288 whole entry): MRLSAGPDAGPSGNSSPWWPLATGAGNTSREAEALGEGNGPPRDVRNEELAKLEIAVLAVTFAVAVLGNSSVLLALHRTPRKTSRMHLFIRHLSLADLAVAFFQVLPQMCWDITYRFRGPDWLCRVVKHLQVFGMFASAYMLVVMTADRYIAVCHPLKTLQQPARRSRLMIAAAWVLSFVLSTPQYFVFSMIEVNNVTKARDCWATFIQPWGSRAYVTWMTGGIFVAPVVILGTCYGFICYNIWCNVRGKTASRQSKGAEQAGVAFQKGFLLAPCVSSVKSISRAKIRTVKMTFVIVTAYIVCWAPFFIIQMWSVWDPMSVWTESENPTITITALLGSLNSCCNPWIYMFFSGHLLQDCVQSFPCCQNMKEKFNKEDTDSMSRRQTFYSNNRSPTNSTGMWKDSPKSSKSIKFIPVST
T5 sequence (P35348 whole entry): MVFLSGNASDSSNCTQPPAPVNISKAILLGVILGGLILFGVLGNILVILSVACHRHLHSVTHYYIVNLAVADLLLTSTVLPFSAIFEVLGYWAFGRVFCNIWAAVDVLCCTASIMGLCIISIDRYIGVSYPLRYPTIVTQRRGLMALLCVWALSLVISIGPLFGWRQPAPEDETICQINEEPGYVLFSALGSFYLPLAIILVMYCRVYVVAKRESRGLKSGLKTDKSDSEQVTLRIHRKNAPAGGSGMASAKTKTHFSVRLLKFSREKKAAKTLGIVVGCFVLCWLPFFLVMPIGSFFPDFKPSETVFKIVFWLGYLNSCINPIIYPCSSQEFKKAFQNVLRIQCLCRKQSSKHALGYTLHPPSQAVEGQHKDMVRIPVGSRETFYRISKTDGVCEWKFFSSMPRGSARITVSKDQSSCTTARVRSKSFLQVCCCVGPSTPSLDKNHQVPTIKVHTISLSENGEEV
T1 sequence (P28222 whole entry): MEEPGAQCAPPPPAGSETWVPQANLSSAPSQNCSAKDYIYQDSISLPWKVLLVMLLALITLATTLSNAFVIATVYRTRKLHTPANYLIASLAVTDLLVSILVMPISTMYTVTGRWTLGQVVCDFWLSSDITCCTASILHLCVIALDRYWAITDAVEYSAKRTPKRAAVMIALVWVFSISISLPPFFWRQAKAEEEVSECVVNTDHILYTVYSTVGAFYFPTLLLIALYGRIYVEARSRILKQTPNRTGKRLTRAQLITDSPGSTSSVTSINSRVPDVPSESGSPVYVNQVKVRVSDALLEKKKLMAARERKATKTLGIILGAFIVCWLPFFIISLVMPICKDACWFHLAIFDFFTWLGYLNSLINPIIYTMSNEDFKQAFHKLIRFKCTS
Chain of Histamine Receptor H2 (HRH2) (P25021 whole entry): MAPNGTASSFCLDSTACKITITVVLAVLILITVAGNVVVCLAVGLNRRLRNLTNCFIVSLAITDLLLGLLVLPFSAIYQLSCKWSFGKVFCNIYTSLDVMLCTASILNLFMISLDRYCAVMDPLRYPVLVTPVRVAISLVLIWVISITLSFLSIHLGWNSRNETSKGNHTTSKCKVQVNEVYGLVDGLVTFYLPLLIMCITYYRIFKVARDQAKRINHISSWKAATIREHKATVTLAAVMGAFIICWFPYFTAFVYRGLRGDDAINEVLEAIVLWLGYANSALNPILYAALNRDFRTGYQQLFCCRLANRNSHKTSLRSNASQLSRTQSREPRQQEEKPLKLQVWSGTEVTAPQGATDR
Chain of Opioid Receptor Delta 1 (OPRD1) (P41143 whole entry): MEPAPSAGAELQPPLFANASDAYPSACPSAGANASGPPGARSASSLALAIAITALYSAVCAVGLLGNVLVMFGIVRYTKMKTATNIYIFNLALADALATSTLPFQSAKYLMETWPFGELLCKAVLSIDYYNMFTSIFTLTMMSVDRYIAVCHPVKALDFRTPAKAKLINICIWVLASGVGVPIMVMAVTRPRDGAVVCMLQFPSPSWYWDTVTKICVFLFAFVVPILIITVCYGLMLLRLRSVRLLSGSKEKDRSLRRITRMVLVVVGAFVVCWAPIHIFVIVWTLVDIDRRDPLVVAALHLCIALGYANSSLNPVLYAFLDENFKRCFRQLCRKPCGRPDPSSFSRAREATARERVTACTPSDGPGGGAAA

For CN(C)CCc1ccn2ccccc12 [28-12 oxalate, 2-(indolizin-1-yl)-N, N-dimethylethan-1-amine oxalate], the EC50 ([1]; 5-HT1B, cAMP, read-out: EC50 (μM) Agonist/Opener) was 0.143 µM, the EC50 ([1]; EC50, agonism of 5-HT1B receptors, ten concentrations up to 30 μM) was roughly 0.143 µM and the IC50 [2] was 7.25 µM. For the same molecule, the IC50 [3] was greater than 30 µM, the IC50 [4] was greater than 30 µM and the EC50 [5] was greater than 30 µM. The IC50 [6] was 2.31 µM, the IC50 [7] was 10.2 µM and the EC50 [8] was greater than 30 µM. It also gave an IC50 [9] greater than 30 µM, an EC50 [10] greater than 30 µM and an IC50 [11] greater than 30 µM. For the same molecule, the EC50 [12] was greater than 30 µM, the IC50 [13] was greater than 30 µM and the EC50 [14] was greater than 30 µM. It also gave an EC50 [15] greater than 30 µM, an IC50 [16] greater than 30 µM and an IC50 [17] greater than 30 µM. For the same molecule, the EC50 [18] was greater than 30 µM, the IC50 [19] was greater than 30 µM and the EC50 [20] was greater than 30 µM. For the same molecule, the EC50 [21] was greater than 30 µM, the IC50 [22] was greater than 30 µM and the IC50 [23] was greater than 30 µM. It also gave an IC50 [24] greater than 30 µM, an EC50 [25] greater than 30 µM and an IC50 [26] greater than 30 µM. It also gave an IC50 [27] greater than 30 µM, an IC50 [28] of 17.1 µM and an IC50 [29] greater than 30 µM. It also gave an IC50 [30] greater than 30 µM and an IC50 [31] greater than 30 µM.
